Assay results from ChEMBL document CHEMBL3774345, “Synthesis of new diarylamides with pyrimidinyl pyridine scaffold and evaluation of their anti-proliferative effect on cancer cell lines” (Bioorg Med Chem Lett, 2016).

Tests used:
Assay type in all cases: functional
[1] = Cytotoxicity against human RXF393 cells assessed as cell growth at 10^-5 M after 24 hrs by SRB assay; settings: RXF 393, 24 h, read-out: Activity
[2] = Cytotoxicity against human HCT15 cells assessed as cell growth at 10^-7 M after 24 hrs by SRB assay; settings: HCT-15, 24 h, read-out: Activity
[3] = test system: A498; test: Cytotoxicity against human A498 cells assessed as cell growth at 10^-7 M after 24 hrs by SRB assay; settings: A498, 24 h, read-out: Activity
[4] = test system: SK-MEL-28; test: Cytotoxicity against human SK-MEL-28 cells assessed as cell growth at 10^-6 M after 24 hrs by SRB assay; settings: SK-MEL-28, 24 h, read-out: Activity
[5] = test system: SK-MEL-2; test: Cytotoxicity against human SK-MEL-2 cells after 24 hrs by SRB assay; settings: SK-MEL-2, 24 h
[6] = Cytotoxicity against human LOXIMVI cells assessed as cell growth at 10^-5 M after 24 hrs by SRB assay; settings: LOX IMVI, read-out: Activity
[7] = Cytotoxicity against human UACC257 cells assessed as cell growth at 10^-4 M after 24 hrs by SRB assay; settings: UACC-257, 24 h, read-out: Activity
[8] = Cytotoxicity against human COLO205 cells assessed as cell growth at 10^-5 M after 24 hrs by SRB assay; settings: COLO 205, 24 h, read-out: Activity
[9] = test system: Malme-3M; test: Cytotoxicity against human MALME-3M cells assessed as cell growth at 10^-4 M after 24 hrs by SRB assay; settings: read-out: Activity
[10] = Cytotoxicity against human SW620 cells after 24 hrs by SRB assay; settings: SW-620, 24 h
[11] = test system: KM12; test: Cytotoxicity against human KM12 cells after 24 hrs by SRB assay; settings: KM12, 24 h
[12] = test system: SN12C; test: Cytotoxicity against human SN12C cells after 24 hrs by SRB assay
[13] = Cytotoxicity against human SF268 cells after 24 hrs by SRB assay; settings: SF-268, 24 h
[14] = test system: CCRF-CEM; test: Cytotoxicity against human CCRF-CEM cells assessed as cell growth at 10^-5 M after 24 hrs by SRB assay; settings: read-out: Activity
[15] = test system: EKVX; test: Cytotoxicity against human EKVX cells assessed as cell growth at 10^-7 M after 24 hrs by SRB assay; settings: read-out: Activity
[16] = Cytotoxicity against human OVCAR5 cells assessed as cell growth at 10^-4 M after 24 hrs by SRB assay; settings: OVCAR-5, 24 h, read-out: Activity
[17] = Cytotoxicity against human HOP92 cells assessed as cell growth at 10^-6 M after 24 hrs by SRB assay; settings: HOP-92, 24 h, read-out: Activity
[18] = test system: KM12; test: Cytotoxicity against human KM12 cells assessed as cell growth at 10^-5 M after 24 hrs by SRB assay; settings: KM12, 24 h, read-out: Activity
[19] = test system: MCF7; test: Cytotoxicity against human MCF7 cells assessed as cell growth at 10^-8 M after 24 hrs by SRB assay; settings: MCF7, 24 h, read-out: Activity
[20] = test system: HT-29; test: Cytotoxicity against human HT-29 cells assessed as cell growth at 10^-8 M after 24 hrs by SRB assay; settings: HT-29, 24 h, read-out: Activity
[21] = Cytotoxicity against human OVCAR5 cells assessed as cell growth at 10^-8 M after 24 hrs by SRB assay; settings: OVCAR-5, 24 h, read-out: Activity
[22] = test system: SR; test: Cytotoxicity against human SR cells assessed as cell growth at 10^-7 M after 24 hrs by SRB assay; settings: read-out: Activity
[23] = test system: T47D; test: Cytotoxicity against human T47D cells assessed as cell growth at 10^-4 M after 24 hrs by SRB assay; settings: read-out: Activity
[24] = Cytotoxicity against human OVCAR5 cells after 24 hrs by SRB assay; settings: OVCAR-5, 24 h
[25] = Cytotoxicity against human HOP62 cells assessed as cell growth at 10^-4 M after 24 hrs by SRB assay; settings: HOP-62, 24 h, read-out: Activity
[26] = test system: Malme-3M; test: Cytotoxicity against human MALME-3M cells assessed as cell growth at 10^-8 M after 24 hrs by SRB assay; settings: read-out: Activity
[27] = test system: MDA-MB-435; test: Cytotoxicity against human MDA-MB-435 cells assessed as cell growth at 10^-6 M after 24 hrs by SRB assay; settings: MDA-MB-435, 24 h, read-out: Activity
[28] = test system: HT-29; test: Cytotoxicity against human HT-29 cells assessed as cell growth at 10^-7 M after 24 hrs by SRB assay; settings: HT-29, 24 h, read-out: Activity
[29] = test system: NCI-H460; test: Cytotoxicity against human NCI-H460 cells assessed as cell growth at 10^-4 M after 24 hrs by SRB assay; settings: NCI-H460, 24 h, read-out: Activity
[30] = test system: A498; test: Cytotoxicity against human A498 cells after 24 hrs by SRB assay; settings: A498, 24 h
[31] = Cytotoxicity against human OVCAR5 cells assessed as cell growth at 10^-7 M after 24 hrs by SRB assay; settings: OVCAR-5, 24 h, read-out: Activity
[32] = Cytotoxicity against human SF268 cells assessed as cell growth at 10^-8 M after 24 hrs by SRB assay; settings: SF-268, 24 h, read-out: Activity
[33] = Cytotoxicity against human HCC2998 cells assessed as cell growth at 10^-5 M after 24 hrs by SRB assay; settings: HCC 2998, 24 h, read-out: Activity
[34] = test system: SR; test: Cytotoxicity against human SR cells assessed as growth inhibition at 10 uM after 24 hrs by SRB assay; settings: read-out: GI
[35] = read-out: LC50 (the source's name)
[36] = read-out: pLC50 (the source's name) (converted)

Question: Which results are given for O=C(Nc1cc(-c2cccnc2)nc(NCCCN2CCOCC2)n1)c1cc(Br)cc(C(F)(F)F)c1?
Answer: growth at 10 µM [1]: -73%; growth at 0.1 µM [2]: 92%; growth at 0.1 µM [3]: 92%; growth at 1 µM [4]: 89%; GI50 ([5]; read-out: GI50): 4.52 µM; CC50 [5, 35]: 45.8 µM; TGI ([5]; read-out: TGI): 17 µM; GI50 ([5]; read-out: pGI50 (converted)): 4.47 µM; CC50 [5, 36]: 45.7 µM; TGI ([5]; read-out: pTGI (converted)): 17 µM; growth at 10 µM [6]: -93%; growth at 100 µM [7]: -93%; growth at 10 µM [8]: -79%; growth at 100 µM [9]: -78%; GI50 ([10]; read-out: GI50): 2.25 µM; CC50 [10, 35]: 20.1 µM; TGI ([10]; read-out: TGI): 5.48 µM; GI50 ([10]; read-out: pGI50 (converted)): 2.24 µM; CC50 [10, 36]: 20 µM; TGI ([10]; read-out: pTGI (converted)): 5.62 µM; GI50 ([11]; read-out: GI50): 3.62 µM; CC50 [11, 35]: 41 µM; TGI ([11]; read-out: TGI): 13.6 µM; GI50 ([11]; read-out: pGI50 (converted)): 3.63 µM; CC50 [11, 36]: 40.7 µM; TGI ([11]; read-out: pTGI (converted)): 13.5 µM; GI50 ([12]; read-out: GI50): 7.74 µM; CC50 [12, 35]: 53.5 µM; TGI ([12]; read-out: TGI): 21.8 µM; GI50 ([12]; read-out: pGI50 (converted)): 7.76 µM; CC50 [12, 36]: 53.7 µM; TGI ([12]; read-out: pTGI (converted)): 22.4 µM; GI50 ([13]; read-out: GI50): 2.63 µM; CC50 [13, 35]: 37.8 µM; TGI ([13]; read-out: TGI): 10.4 µM; GI50 ([13]; read-out: pGI50 (converted)): 2.63 µM; CC50 [13, 36]: 38 µM; TGI ([13]; read-out: pTGI (converted)): 10.5 µM; growth at 10 µM [14]: 6%; growth at 0.1 µM [15]: 80%; growth at 100 µM [16]: -67%; growth at 1 µM [17]: 75%; growth at 10 µM [18]: 14%; growth at 0.01 µM [19]: 95%; growth at 0.01 µM [20]: 100%; growth at 0.01 µM [21]: 92%; growth at 0.1 µM [22]: 106%; growth at 100 µM [23]: -83%; GI50 ([24]; read-out: GI50): 6.33 µM; CC50 [24, 35]: 69.1 µM; TGI ([24]; read-out: TGI): 23.5 µM; GI50 ([24]; read-out: pGI50 (converted)): 6.31 µM; CC50 [24, 36]: 69.2 µM; TGI ([24]; read-out: pTGI (converted)): 23.4 µM; growth at 100 µM [25]: -97%; growth at 0.01 µM [26]: 99%; growth at 1 µM [27]: 90%; growth at 0.1 µM [28]: 102%; growth at 100 µM [29]: -75%; GI50 ([30]; read-out: GI50): 3.43 µM; CC50 [30, 35]: 40.5 µM; TGI ([30]; read-out: TGI): 13.4 µM; GI50 ([30]; read-out: pGI50 (converted)): 3.39 µM; CC50 [30, 36]: 40.7 µM; TGI ([30]; read-out: pTGI (converted)): 13.5 µM; growth at 0.1 µM [31]: 92%; growth at 0.01 µM [32]: 97%; growth at 10 µM [33]: -77%

Question: For COc1cc(OC)cc(C(=O)Nc2cc(-c3cccnc3)nc(NCCCN3CCOCC3)n2)c1, which inhibition of growth at 10 µM [34] is on record?
Answer: Its inhibition of growth at 10 µM is 42.1%.
